Measured values published in ChEMBL document CHEMBL4190167 (Medchemcomm, 2016).

What was measured:
[1] = system: MCF7; test: Cytotoxicity against human MCF7 cells assessed as effect on cell viability up to 100 uM after 24 hrs by WST1 assay; type: cell-based; settings: mcf7, 24 h
[2] = system: HUVEC; test: Cytotoxicity against HUVEC assessed as effect on cell viability up to 100 uM after 24 hrs by WST1 assay; type: cell-based; settings: human

Structure (SMILES) | Activity [1] | Activity [2]
COC(=O)[C@]1(C)CCC[C@]2(C)c3cc4oc(C)nc4cc3C[C@@H](O)[C@@H]12 | Non-Toxic | Non-Toxic
CCOC(=O)[C@]1(C)CCC[C@]2(C)c3cc4occc4cc3C[C@@H](O)[C@@H]12 | Non-Toxic | Non-Toxic
